# Experimental data: ChEMBL document CHEMBL4130462, “Natural isoflavone biochanin A as a template for the design of new and potent 3-phenylquinolone efflux inhibitors against Mycobacterium avium” (Eur J Med Chem, 2017)
# What was measured:
# [1] = system: Mycobacterium avium; test: Antimycobacterial activity against Mycobacterium avium isolate MAV3 assessed as reduction in bacterial viability incubated for 3 days by MTT assay; format: organism-based; conditions: 72 h
# [2] = system: Mycobacterium avium; test: Antimycobacterial activity against Mycobacterium avium isolate MAV4 assessed as reduction in bacterial viability incubated for 3 days by MTT assay; format: organism-based; conditions: 72 h
# [3] = Cytotoxicity in human monocyte-derived macrophages assessed as reduction in cell viability incubated for 3 days by alamar blue dye based assay; set-up: species or system Macrophage cell line
# [4] = Safety index, ratio of CC50 for test compound to CC50 for thioridazine for cytotoxicity in human monocyte-derived macrophages; format: cell-based, Macrophage cell line
# [5] = Safety index, ratio of CC50 for test compound to CC50 for chlorpromazine for cytotoxicity in human monocyte-derived macrophages; format: cell-based, Macrophage cell line
# [6] = Safety index, ratio of MTC for test compound to MTC for chlorpromazine for cytotoxicity in human monocyte-derived macrophages; format: cell-based, Macrophage cell line
# [7] = system: Mycobacterium avium; conditions: in vivo, 72 h
# Description: Antimycobacterial activity against Mycobacterium avium 104 mc'2 3 assessed as reduction in bacterial viability incubated for 3 days by MTT assay
# [8] = system: Mycobacterium avium; conditions: in vivo, 72 h; remark: listed apart in the source
# Description: Antimycobacterial activity against Mycobacterium avium 104 mc'2 4 assessed as reduction in bacterial viability incubated for 3 days by MTT assay
# [9] = system: Mycobacterium avium; conditions: 104
# Description: Inhibition of multidrug resistance efflux pump in Mycobacterium avium 104 assessed as potentiation of clarithromycin -induced antibacterial activity by measuring clarithromycin MIC at 1/2 MIC incubated for 3 days by MTT assay
# [10] = system: Mycobacterium avium; conditions: 104; remark: listed apart in the source
# Description: Inhibition of multidrug resistance efflux pump in Mycobacterium avium 104 assessed as potentiation of clarithromycin -induced antibacterial activity by measuring clarithromycin MIC at 1/4 MIC incubated for 3 days by MTT assay
# [11] = system: Mycobacterium avium; conditions: 104 mc'2 3
# [12] = system: Mycobacterium avium; conditions: 104 mc'2 4
# [13] = system: Mycobacterium avium; conditions: isolate MAV1
# [14] = system: Mycobacterium avium; conditions: isolate MAV1; remark: listed apart in the source
# [15] = system: Mycobacterium avium; conditions: isolate MAV2
# Description: Inhibition of multidrug resistance efflux pump in Mycobacterium avium isolate MAV2 assessed as potentiation of clarithromycin -induced antibacterial activity by measuring clarithromycin MIC at 1/4 MIC incubated for 3 days by MTT assay (Rvb = >1024 ug/ml)
# [16] = system: Mycobacterium avium; conditions: 104; remark: listed apart in the source
# [17] = system: Mycobacterium avium; conditions: 104 mc'2 3; remark: listed apart in the source
# [18] = system: Mycobacterium avium; conditions: 104 mc'2 3; remark: listed apart in the source
# [19] = system: Mycobacterium avium; conditions: isolate MAV1; remark: listed apart in the source
# [20] = system: Mycobacterium avium; conditions: isolate MAV2; remark: listed apart in the source
# [21] = system: Mycobacterium avium; conditions: isolate MAV3
# [22] = system: Mycobacterium avium; conditions: isolate MAV3; remark: listed apart in the source
# [23] = system: Mycobacterium avium; conditions: isolate MAV4
# [24] = system: Mycobacterium avium; conditions: isolate MAV4; remark: listed apart in the source
# [25] = system: Mycobacterium avium subsp. avium ATCC 25291
# [26] = system: Mycobacterium avium subsp. avium ATCC 25291; remark: listed apart in the source
# [27] = system: Mycobacterium avium; conditions: 104; remark: listed apart in the source
# [28] = system: Mycobacterium avium; conditions: 104 mc'2 3; remark: listed apart in the source
# [29] = system: Mycobacterium avium; conditions: isolate MAV1; remark: listed apart in the source
# [30] = system: Mycobacterium avium; conditions: isolate MAV1; remark: listed apart in the source
# [31] = system: Mycobacterium avium; conditions: isolate MAV2; remark: listed apart in the source
# [32] = system: Mycobacterium avium; conditions: isolate MAV3; remark: listed apart in the source
# [33] = system: Mycobacterium avium; conditions: isolate MAV3; remark: listed apart in the source
# [34] = system: Mycobacterium avium; conditions: isolate MAV4; remark: listed apart in the source
# [35] = system: Mycobacterium avium; conditions: isolate MAV4; remark: listed apart in the source
# [36] = system: Mycobacterium avium subsp. avium ATCC 25291; remark: listed apart in the source
# [37] = system: Mycobacterium avium; conditions: 104; remark: listed apart in the source
# [38] = system: Mycobacterium avium; conditions: 104; remark: listed apart in the source
# [39] = system: Mycobacterium avium; conditions: 104 mc'2 3; remark: listed apart in the source
# [40] = system: Mycobacterium avium; conditions: 104 mc'2 4; remark: listed apart in the source
# [41] = system: Mycobacterium avium; conditions: 104 mc'2 4; remark: listed apart in the source
# [42] = system: Mycobacterium avium; conditions: isolate MAV1; remark: listed apart in the source
# Description: Inhibition of multidrug resistance efflux pump in Mycobacterium avium isolate MAV1 assessed as potentiation of ciprofloxacin-induced antibacterial activity by measuring ciprofloxacin MIC at 1/2 MIC incubated for 3 days by MTT assay (Rvb = 2 ug/ml)
# [43] = system: Mycobacterium avium; conditions: isolate MAV1; remark: listed apart in the source
# Description: Inhibition of multidrug resistance efflux pump in Mycobacterium avium isolate MAV1 assessed as potentiation of ciprofloxacin-induced antibacterial activity by measuring ciprofloxacin MIC at 1/4 MIC incubated for 3 days by MTT assay
# [44] = system: Mycobacterium avium; conditions: isolate MAV2; remark: listed apart in the source
# [45] = system: Mycobacterium avium; conditions: isolate MAV3; remark: listed apart in the source
# [46] = system: Mycobacterium avium; conditions: isolate MAV4; remark: listed apart in the source
# [47] = system: Mycobacterium avium subsp. avium ATCC 25291; remark: listed apart in the source
# [48] = system: Mycobacterium avium subsp. avium ATCC 25291; remark: listed apart in the source
# [49] = system: Mycobacterium avium; conditions: 104; remark: listed apart in the source
# [50] = system: Mycobacterium avium; conditions: 104; remark: listed apart in the source
# [51] = system: Mycobacterium avium; conditions: 104 mc'2 3; remark: listed apart in the source
# [52] = system: Mycobacterium avium; conditions: 104 mc'2 4; remark: listed apart in the source
# [53] = system: Mycobacterium avium; conditions: isolate MAV1; remark: listed apart in the source
# Description: Inhibition of multidrug resistance efflux pump in Mycobacterium avium isolate MAV1 assessed as potentiation of ofloxacin-induced antibacterial activity by measuring ofloxacin MIC at 1/2 MIC incubated for 3 days by MTT assay (Rvb = 4 ug/ml)
# [54] = system: Mycobacterium avium; conditions: isolate MAV1; remark: listed apart in the source
# Description: Inhibition of multidrug resistance efflux pump in Mycobacterium avium isolate MAV1 assessed as potentiation of ofloxacin-induced antibacterial activity by measuring ofloxacin MIC at 1/4 MIC incubated for 3 days by MTT assay (Rvb = 4 ug/ml)
# [55] = system: Mycobacterium avium; conditions: isolate MAV2; remark: listed apart in the source
# Description: Inhibition of multidrug resistance efflux pump in Mycobacterium avium isolate MAV2 assessed as potentiation of ofloxacin-induced antibacterial activity by measuring ofloxacin MIC at 1/2 MIC incubated for 3 days by MTT assay
# [56] = system: Mycobacterium avium; conditions: isolate MAV2; remark: listed apart in the source
# Description: Inhibition of multidrug resistance efflux pump in Mycobacterium avium isolate MAV2 assessed as potentiation of ofloxacin-induced antibacterial activity by measuring ofloxacin MIC at 1/4 MIC incubated for 3 days by MTT assay
# [57] = system: Mycobacterium avium; conditions: isolate MAV4; remark: listed apart in the source
# [58] = system: Mycobacterium avium; conditions: 104; remark: listed apart in the source
# [59] = system: Mycobacterium avium; conditions: 104 mc'2 4; remark: listed apart in the source
# [60] = system: Mycobacterium avium; conditions: 104 mc'2 4; remark: listed apart in the source
# [61] = system: Mycobacterium avium; conditions: isolate MAV1; remark: listed apart in the source
# [62] = system: Mycobacterium avium; conditions: isolate MAV1; remark: listed apart in the source
# [63] = system: Mycobacterium avium; conditions: isolate MAV2; remark: listed apart in the source
# [64] = system: Mycobacterium avium; conditions: isolate MAV3; remark: listed apart in the source
# [65] = system: Mycobacterium avium; conditions: isolate MAV4; remark: listed apart in the source
# [66] = system: Mycobacterium avium; conditions: isolate MAV4; remark: listed apart in the source
# Description: Inhibition of multidrug resistance efflux pump in Mycobacterium avium isolate MAV4 assessed as potentiation of ethidium bromide-induced antibacterial activity by measuring ethidium bromide MIC at 1/4 MIC incubated for 3 days by MTT assay
# [67] = system: Mycobacterium avium subsp. avium ATCC 25291; remark: listed apart in the source
# Description: Inhibition of multidrug resistance efflux pump in Mycobacterium avium ATCC 25291 assessed as potentiation of ethidium bromide-induced antibacterial activity by measuring ethidium bromide MIC at 1/2 MIC incubated for 3 days by MTT assay (Rvb = 50 ug/ml)
# [68] = system: Mycobacterium avium subsp. avium ATCC 25291; remark: listed apart in the source
# Description: Inhibition of multidrug resistance efflux pump in Mycobacterium avium ATCC 25291 assessed as potentiation of ethidium bromide-induced antibacterial activity by measuring ethidium bromide MIC at 1/4 MIC incubated for 3 days by MTT assay
smiles,measurement,setting,value
CCCOc1ccc(-c2cn(CCN3CCCCC3)c3ccccc3c2=O)cc1,MIC,[1],128 µg/mL
same,MIC,[2],256 µg/mL
same,CC50 at 72 h,[3]; human monocyte-derived macrophages,82.2 µM
same,MTC,"[3]; macrophage cell line, 72 h",40 µM
same,selectivity ratio,[4],4 to 6
same,selectivity ratio,[5],2 to 4
same,selectivity ratio,[6],2 to 4
same,MIC,[7],256 µg/mL
same,MIC,[8],256 µg/mL
same,MIC,[9],< 0.125 µg/mL
same,MIC,[10],< 0.125 µg/mL
same,MIC,[11],256 µg/mL
same,MIC,[12],128 µg/mL
same,MIC,[13],< 0.125 µg/mL
same,MIC,[14],0.25 µg/mL
same,MIC,[15],512 µg/mL
same,MIC,[16],< 0.125 µg/mL
same,MIC,[17],< 4 µg/mL
same,MIC,[18],128 µg/mL
same,MIC,[19],< 4 µg/mL
same,MIC,[20],512 µg/mL
same,MIC,[21],< 4 µg/mL
same,MIC,[22],64 µg/mL
same,MIC,[23],< 4 µg/mL
same,MIC,[24],< 4 µg/mL
same,MIC,[25],< 1 µg/mL
same,MIC,[26],32 µg/mL
same,MIC,[27],< 0.125 µg/mL
same,MIC,[28],512 µg/mL
same,MIC,[29],< 4 µg/mL
same,MIC,[30],< 4 µg/mL
same,MIC,[31],256 µg/mL
same,MIC,[32],8 µg/mL
same,MIC,[33],32 µg/mL
same,MIC,[34],< 4 µg/mL
same,MIC,[35],8 µg/mL
same,MIC,[36],< 0.5 µg/mL
same,MIC,[37],< 0.125 µg/mL
same,MIC,[38],< 0.125 µg/mL
same,MIC,[39],< 0.125 µg/mL
same,MIC,[40],< 0.125 µg/mL
same,MIC,[41],2 µg/mL
same,MIC,[42],< 0.031 µg/mL
same,MIC,[43],2 µg/mL
same,MIC,[44],1 µg/mL
same,MIC,[45],1 µg/mL
same,MIC,[46],< 0.25 µg/mL
same,MIC,[47],< 0.25 µg/mL
same,MIC,[48],8 µg/mL
same,MIC,[49],< 0.125 µg/mL
same,MIC,[50],< 0.125 µg/mL
same,MIC,[51],8 µg/mL
same,MIC,[52],4 µg/mL
same,MIC,[53],< 0.0625 µg/mL
same,MIC,[54],1 µg/mL
same,MIC,[55],2 µg/mL
same,MIC,[56],4 µg/mL
same,MIC,[57],4 µg/mL
same,MIC,[58],< 0.195 µg/mL
same,MIC,[59],< 0.195 µg/mL
same,MIC,[60],3.12 µg/mL
same,MIC,[61],< 0.195 µg/mL
same,MIC,[62],1.56 µg/mL
same,MIC,[63],6.25 µg/mL
same,MIC,[64],12.5 µg/mL
same,MIC,[65],< 0.39 µg/mL
same,MIC,[66],3.12 µg/mL
same,MIC,[67],< 0.39 µg/mL
same,MIC,[68],12.5 µg/mL
